The nature of this series: Stability studies of sirolimus particles packed in vacuum sealed impermeable container at 25° C. and 60% RH, impurities by gradient HPLC. Format: physicochemical. As to conditions: three months. The text has this:
Sirolimus particles (d90-4.1 micron) were packed in a bag made up of laminate having a polyester and a polyethylene layer wherein the layers have a thickness of 12 micron and 75 micron, respectively. The bag was sealed under vacuum. The vacuum sealed bag was put into second bag made up of laminate having polyester, aluminium foil, polyester and polyethylene layer wherein the layers have a thickness of 12 micron, 12 micron, 12 micron and 75 microns, respectively. The second bag was sealed under vacuum and was subjected to stability studies at 25° C. and 60% RH for three months.
Quantitative determination was carried out using Gradient High Performance Liquid Chromatography with a mixture of ammonium phosphate buffer and an organic phase (acetonitrile and tetrahydrofuran) as the mobile phase, ACE C18, HL, 5 μm column as a stationary phase and a UV detector.

For `CO[C@H]1C[C@@H]2CC[C@@H](C)[C@@](O)(O2)C(=O)C(=O)N2CCCC[C@H]2C(=O)O[C@H]([C@H](C)C[C@@H]2CC[C@@H](O)[C@H](OC)C2)CC(=O)[C@H](C)/C=C(\C)[C@@H](O)[C@@H](OC)C(=O)[C@H](C)C[C@H](C)/C=C/C=C/C=C/1C` [sirolimus particles, Sirolimus], the Stability on storage result is “stable”.

These data come from patent US20100268187A1, “PACKAGING FOR SIROLIMUS AND COMPOSITION THEREOF” (Ranbaxy Laboratories Limited, priority 2009, published 2010).
